Data as given in article PMC6186498 (Toxicology, 2018).
Read-outs that look alike come from different tables or passages of the source. Marks after values point to notes of the source that are not given here.

What was measured:
[1] = at low doses; ref Chiu et al. 2009; cited from earlier work
[2] = cited from earlier work
[3] = cited from earlier work; remark: listed apart in the source
[4] = human, M, cited from earlier work
[5] = cited from earlier work; remark: listed apart in the source
[6] = for TCA(%), percentage of administered TCE excreted in urine / TCOH (%): This study (% estimated), 800 mg/kg oral, M
[7] = 200 mg/kg stomach tube, rat Wistar, F, ref Dekant et al. 1984
[8] = 500 mg/kg oral, rat Osborne-Mendal, M, ref Green and Prout 1985
[9] = 600 mg/kg oral, rat Sprague-Dawley, M, ref Larson and Bull 1992
[10] = 100 ppm inhalation, rat, PBPK model estimate, ref Chiu et al 2009
[11] = 1 ppm inhalation, PBPK model estimate, ref Chiu et al 2009
[12] = 1 ppm inhalation, ref Chiu et al 2006
[13] = 70 ppm inhalation, ref Monster 1976
[14] = 70 ppm inhalation, ref Monster 1979
[15] = 200 mg/kg stomach tube, mice NMRI, F, ref Dekant et al. 1984
[16] = 500 mg/kg oral, mice B6C3F1/J, M, ref Green and Prout 1985
[17] = 600 mg/kg oral, mice B6C3F1/J, M, ref Larson and Bull 1992
[18] = 1000 mg/kg oral, mice, PBPK model estimate, ref Chiu et al 2009
[19] = 2100 mg/kg oral, mice B6C3F1/J, M, PBPK model estimate, ref Chiu et al 2014
[20] = mean ± SD, average of all strains, single oral dose 6 mmole/kg
[21] = model-derived AUCs across strains
[22] = range over strains, model estimate

## ClC=C(Cl)Cl [TCE, Trichloroethylene]
[1]
  glutathione conjugation metabolites of TCE in rodents as % of that in humans: approximately 1%
[2]; [7]
  TCA(%), percentage of total urinary metabolite calculated based on radioactivity: 15.3 ^* %
  TCOH (%), percentage of total urinary metabolite calculated based on radioactivity: 73.6 ^* %
[2]; [8]
  TCA(%), percentage of total urinary metabolite calculated based on radioactivity: 6.3 ^* %
  TCOH (%), percentage of total urinary metabolite calculated based on radioactivity: 90.1 ^* %
[2]; [9]
  TCA(%), percentage of administered TCE excreted in urine: 4.1%
  TCOH (%): 23.2%
[2]; [10]
  GSH conjugation (%): 0.06%
  Oxidation to GSH: 666.7
  TCA(%) and TCOH (%), one cell spanning both columns: 40%
[2]; 505 ppm inhalation, rat F344, M, PBPK model estimate, ref Fisher et al. 1991
  TCA(%), percentage of administered TCE excreted in urine: 6%
[3]; ref Guha et al. 2012
  carcinogenicity classification by IARC: carcinogenic to humans
[3]; ref U.S. EPA 2011a, b
  carcinogenicity classification by US EPA: carcinogenic to humans
[4]; [11]
  GSH conjugation (%): 5%
  Oxidation to GSH: 7.6
  TCA(%) and TCOH (%), one cell spanning both columns: 38%
[4]; [12]
  TCA(%), percentage of administered TCE excreted in urine: 1–2%
  TCOH (%): 16–28%
[4]; [13]
  TCA(%), percentage of administered TCE excreted in urine: 18%
  TCOH (%): 39%
[4]; [14]
  TCA(%), percentage of administered TCE excreted in urine: 21%
  TCOH (%): 43%
[5]; [15]
  TCA(%), percentage of total urinary metabolite calculated based on radioactivity: 0.1 ^* %
  TCOH (%), percentage of total urinary metabolite calculated based on radioactivity: 94.3 ^* %
[5]; [16]
  TCA(%), percentage of total urinary metabolite calculated based on radioactivity: 7.2 ^* %
  TCOH (%), percentage of total urinary metabolite calculated based on radioactivity: 91.1 ^* %
[5]; [17]
  TCA(%), percentage of administered TCE excreted in urine: 3.9%
  TCOH (%): 31%
[5]; [18]
  GSH conjugation (%): 0.2%
  Oxidation to GSH: 450
  TCA(%) and TCOH (%), one cell spanning both columns: 90%
[5]; [19]
  GSH conjugation (%): 0.065%
  Oxidation to GSH: 290
  TCA(%), percentage of administered TCE excreted in urine: 4.4%
[5]; Collaborative Cross mouse population, single oral dose of TCE, ref Venkatratnam et al. 2017
  inter-strain variability of TCA levels in liver, GSD: 2.24
[6]; B6C3F1/J mice, kidney
  AUC0–36 of TCE as compared to AUC0–36 of PCE, kidney: 2.0%
[6]; B6C3F1/J mice, liver
  AUC0–36 of TCE as compared to AUC0–36 of PCE, liver: 43.9%
[6]; B6C3F1/J mice, lung
  AUC0–36 of TCE as compared to AUC0–36 of PCE, lung: 36.2%
[6]; B6C3F1/J mice, serum
  AUC0–36 of TCE as compared to AUC0–36 of PCE, serum: 39.8%
[6]; mice B6C3F1/J
  TCA(%), percentage of administered TCE excreted in urine: 5.8%
  TCOH (%): 21%
[6]; mice C57BL/6J
  TCA(%), percentage of administered TCE excreted in urine: 3.5%
  TCOH (%): 12%
[6]; mice NZW/LacJ
  TCA(%), percentage of administered TCE excreted in urine: 7.1%
  TCOH (%): 31%
[6]; across all mouse strains examined
  flux through oxidation metabolism pathway over that through conjugation: 1,200–3,800 fold
[6]; after equimolar treatment of TCE or PCE
  overall flux of glutathione conjugation expressed as dose: 0.13 to 0.17 mg/kg
[6]; higher
  elimination constant for n-acetylcysteine conjugates in TCE-treated as compared to PCE-treated mice: 1.5 fold
[6]; higher than PCE
  TCE elimination rate constant relative to that for PCE: 2.8 fold
[6]; higher than in PCE-treated mice
  formation rate constant of TCA (KTCA) in TCE-treated versus PCE-treated mice: 2.4 fold
[6]; [20]
  First order rate constant, Elimination NAcT/DCVC→: 23.8 ± 10.5 h⁻¹
  First order rate constant, Elimination T/PCE→: 0.49 ± 0.12 h⁻¹
  First order rate constant, Elimination TCA→: 0.05 ± 0.02 h⁻¹
  First order rate constant, Elimination TCOH→: 0.49 ± 0.13 h⁻¹
  First order rate constant, GSH conjugation D/TCVC→NAcD/TCVC: 73.4 ± 17.4 h⁻¹
  First order rate constant, GSH conjugation D/TCVC→Reactive species: 1.69 ± 0.45 h⁻¹
  First order rate constant, GSH conjugation D/TCVG→D/TCVC: 0.30 ± 0.07 h⁻¹
  First order rate constant, GSH conjugation T/PCE→D/TCVG: (3.5±1.1)*10^−6 h^−1
  First order rate constant, Oxidation T/PCE→TCA: 0.034 ± 0.010 h⁻¹
  First order rate constant, Oxidation T/PCE→TCOH: 0.13 ± 0.04 h⁻¹
[6]; [21]
  inter-strain variability of AUC of glutathione conjugation metabolites, GSD: 1.04−1.92
  inter-strain variability of AUC of oxidative metabolites (TCA and TCOH), GSD: 1.24−2.04
[6]; mouse, in vivo
  AUC0–36 of TCE as compared to AUC0–36 of PCE, brain: 29.0%
  elimination rate constant (Ke) of TCA in TCE-treated mice as % of that in PCE-treated mice: 62.5%
[6]; range given for TCE and PCE together, approximately
  yield through glutathione conjugation pathway as % of that through oxidative pathway: 0.033%−3.3
[6]; range over strains
  portion of the parent compound that undergoes metabolism: 15.7%−38.3
[6]; [22]
  Excreted TCA, % of the total dose: 3.5%−7.1
  TCOH, % of the total dose: 12.2−31.2%
  estimated fraction of the reactive species formation from cysteine conjugates: 2.1% to 2.4
[6]; range over strains, model estimate at steady state
  fraction of the total administered dose remaining unmetabolized until excretion: 61.7% to 84.3
[6]; serum, liver, brain, and lung, except for C57BL/6J mice, higher
  AUC0–36 of TCA in TCE-treated mice as compared to PCE-treated mice: 1.2–1.7 fold
